Where a name gives a salt, the structure may show the parent alone.
Assays:
[1] = biological target: neuronal nicotinic cholinergic channel receptors (Rattus norvegicus, UniProt P09483+P12390); details: displacement of [3H]-cytisine (1.25 nM), whole rat brain membranes; Ki from IC50 by Cheng and Prusoff correction; read-out: Binding Ki
Procedure: A. Protocol For Determination of Nicotinic Cholinergic Channel Receptor Binding Potencies of Ligands
Binding of [^3H]-cytisine ([^3H]-CYT) to nicotinic receptors was accomplished using crude synaptic membrane preparations from whole rat brain (Pabreza et al., Molecular Pharmacol, 1990, 39:9). Washed membranes were stored at −80° C. prior to use. Frozen aliquots were slowly thawed and resuspended in 20 volumes of buffer (containing: 120 mM NaCl, 5 mM KCl, 2 mM MgCl2, 2 mM CaCl2 and 50 mM Tris-Cl, pH 7.4 @ 4° C.). After centrifuging at 20,000×g for 15 minutes, the pellets were resuspended in 30 volumes of buffer. Homogenate (containing 125-150 μg protein) was added to triplicate tubes containing concentrations of test compound and [^3H]-CYT (1.25 nM) in a final volume of 500 μL. Samples were incubated for 60 minutes at 4° C., then rapidly filtered through Whatman GF/B filters presoaked in 0.5% polyethyleneimine using 3×4 mL of ice-cold buffer. The filters are counted in 4 mL of Ecolume® (ICN). Nonspecific binding was determined in the presence of […] (−)-nicotine and values were expressed as a percentage of total binding.

[2] = biological target: neuronal nicotinic cholinergic channels in IMR-32 cells (Homo sapiens, UniProt P30926+P32297); experiment: 86Rb+ efflux in IMR-32 cells (activation, or inhibition of efflux elicited by (S)-nicotine); assay type: cell-based; details: for inhibition at 10 µM: single dose 10 μM; for EC50: activation
Text: For the purpose of directly evaluating the ability of test compounds to functionally activate or inhibit certain subtypes of neuronal nicotinic cholinergic channels, an assay to determine ^86Rb^+Efflux in IMR-32 cells was employed (Protocol B below).
B. Protocols for the Determination of Functional Effects of Cholinerzic Channel Receptor Ligands on Synaptic Transmission
Cells of the IMR-32 human neuroblastoma clonal cell line (ATCC, Rockville, Md.) were maintained in a log phase of growth according to established procedures (Lukas, 1993). Experimental cells were seeded at a density of 500,000 cells/ml into a 24-well tissue culture dish. Plated cells were allowed to proliferate for at least 48 hours before loading with 2 μCi/ml of ^86Rb^+ (35 Ci/mmol) overnight at 37° C. The ^86Rb^+ efflux assays were performed according to previously published protocols (Lukas, R. J., J. Pharmacol. Exp. Ther., 265: 294-302, 1993) except serum-free Dulbecco's Modified Eagle's Medium was used during the ^86Rb^+ loading, rinsing, and agonist-induced efflux steps.
EC50 data and maximal responses (reported as percent relative to the response elicited by 100 μM (S)-nicotine) are shown for selected compounds of the invention. The inhibition data (given for a larger number of compounds) reflect inhibition of the efflux elicited by 100 μM (S)-nicotine for either a single dose (% inhibition at 1 μM or at 10 μM) or over a range of doses (IC50 of inhibition). […] This finding is in agreement with the results of others who have linked dopamine release, which is dependent upon the ion flux in synaptic transmission, to binding at nicotinic receptors (cf., for example, Lippiello and Caldwell, U.S. Pat. No. 5,242,935, issued Sep. 7, 1993; Caldwell and Lippiello, U.S. Pat. No. 5,248,690, issued Sep. 28, 1993; and Wonnacott et al., Prog. Brain Res., 79: 157-163 (1989)).

[3] = IMR-32, inhibition of the efflux elicited by 100 μM (S)-nicotine, single dose 1 μM
[4] = IMR-32, inhibition of the efflux elicited by 100 μM (S)-nicotine
[5] = 86Rb+ efflux, percent relative to the response elicited by 100 μM (S)-nicotine

neuronal nicotinic cholinergic channel receptors, sequence (P09483 31-630): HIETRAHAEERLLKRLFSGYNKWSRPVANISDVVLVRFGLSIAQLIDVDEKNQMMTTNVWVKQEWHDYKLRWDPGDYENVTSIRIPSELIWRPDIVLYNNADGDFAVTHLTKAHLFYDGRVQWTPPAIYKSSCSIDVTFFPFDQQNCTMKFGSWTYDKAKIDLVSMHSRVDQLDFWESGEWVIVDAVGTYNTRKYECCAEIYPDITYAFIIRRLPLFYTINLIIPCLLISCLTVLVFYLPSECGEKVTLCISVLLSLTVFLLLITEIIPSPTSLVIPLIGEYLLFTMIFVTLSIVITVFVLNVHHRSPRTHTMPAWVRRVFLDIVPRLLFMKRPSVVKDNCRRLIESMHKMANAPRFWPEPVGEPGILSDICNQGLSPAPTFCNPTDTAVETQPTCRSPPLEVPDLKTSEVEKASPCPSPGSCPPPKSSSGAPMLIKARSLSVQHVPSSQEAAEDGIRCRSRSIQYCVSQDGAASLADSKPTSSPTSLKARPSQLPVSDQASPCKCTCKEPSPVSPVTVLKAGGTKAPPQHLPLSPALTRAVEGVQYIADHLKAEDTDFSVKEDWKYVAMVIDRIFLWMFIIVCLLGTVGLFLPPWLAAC
neuronal nicotinic cholinergic channel receptors, sequence (P12390 25-500): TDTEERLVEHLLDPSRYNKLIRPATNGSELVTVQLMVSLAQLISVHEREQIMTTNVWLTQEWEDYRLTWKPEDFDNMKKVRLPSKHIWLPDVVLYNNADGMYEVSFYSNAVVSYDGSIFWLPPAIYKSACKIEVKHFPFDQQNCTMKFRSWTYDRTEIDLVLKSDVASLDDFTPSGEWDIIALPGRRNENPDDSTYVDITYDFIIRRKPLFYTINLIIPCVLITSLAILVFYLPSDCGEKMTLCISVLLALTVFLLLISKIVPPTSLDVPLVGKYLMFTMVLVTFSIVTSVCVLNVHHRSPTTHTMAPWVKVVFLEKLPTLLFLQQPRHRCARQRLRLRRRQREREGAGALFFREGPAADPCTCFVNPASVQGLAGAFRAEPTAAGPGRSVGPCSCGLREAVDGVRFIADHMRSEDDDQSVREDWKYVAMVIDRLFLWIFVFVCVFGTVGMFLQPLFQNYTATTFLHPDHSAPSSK

Molecule | Ki [1] | inhibition at 1 µM [2, 3] | further results
Cc1ccc(-c2cncc(OC[C@@H]3CCCN3C)c2)cc1.Cl.Cl [Example 41, 5-(4-Methylphenyl)-3-(1-methyl-2-(S)-pyrrolidinylmethoxy)pyridine Dihydrochloride] | 0.13 nM | 41% | inhibition at 10 µM [2, 4]: 100%; melting point: 204 to 206 °C
CCCCC#Cc1cncc(OC[C@@H]2CCN2)c1.Cl.Cl [Example 58, 5-Hexynyl-3-(2-(S)-azetidinylmethoxy)pyridine Dihydrochloride] | 0.056 nM | – | EC50 ([2]; 86Rb+ efflux): 0.8 µM; IMR-32 maximal response [2, 5]: 47%
5-Hexenyl-3-(1-methyl-2-(S)-pyrrolidinylmethoxy)pyridine Dihydrochloride [Example 12] | 0.32 nM | – | % Inhibition @ 1 μM ([2]; inhibition of the efflux elicited by 100 μM (S)-nicotine, single dose 1 μM): 25%
CN1CCC[C@H]1COc1cncc(-c2ccc(F)cc2)c1 [Example 11, 5-(4-Fluorophenyl)-3-(1-methyl-2-(S)-pyrrolidinylmethoxy)pyridine Dihydrochloride] | 0.11 nM | 38% | –
COC(=O)c1cncc(OC[C@@H]2CCCN2C)c1 [Example 27, 5-Methoxycarbonol-3-(1-methyl-2-(S)-pyrrolidinylmethoxy)pyridine Dihydrochloride] | 1.5 nM | 26% | –
CN1CCC[C@H]1COc1cncc(-c2cccc([N+](=O)[O-])c2)c1 [Example 1, 5-(3-Nitrophenyl)-3-(1-methyl-2-(S)-pyrrolidinylmethoxy)pyridine Dihydrochloride] | 0.46 nM | 13% | –
CN1CCC[C@H]1COc1cncc(C#Cc2ccccc2)c1.Cl.Cl [Example 40, 5-(2-Phenylethynyl)-3-(1-methyl-2-(S)-pyrrolidinylmethoxy)pyridine Dihydrochloride] | 0.16 nM | 30% | inhibition at 10 µM [2, 4]: 100%; melting point: 190 to 192 °C
CN1CCC[C@H]1COc1cncc(-c2cccc3ccccc23)c1 [Example 2, 5-(1-Naphthalenyl)-3-(1-methyl-2-(S)-pyrrolidinylmethoxy)pyridine Dihydrochloride] | 4.2 nM | 47% | –
CN1CCC[C@H]1COc1cncc(-c2ccco2)c1 [Example 5, 5-(2-Furanyl-3-(1-methyl-2-(S)-pyrrolidinylmethoxy)pyridine Dihydrochloride] | 0.19 nM | 27% | –
CN1CCC[C@H]1COc1cncc(-c2cccc(N)c2)c1.Cl.Cl [Example 43, 5-(3-Aminophenyl)-3-(1-methyl-2-(S)-pyrrolidinylmethoxy)pyridine Dihydrochloride] | 0.43 nM | 36% | melting point: 80 to 82 °C
CN1CCC[C@H]1COc1cncc(-c2ccc(Cl)cc2)c1.Cl.Cl [Example 38, 5-(4-Chlorophenyl)-3-(1-methyl-2-(S)-pyrrolidinylmethoxy)pyridine Dihydrochloride] | 0.082 nM | 29% | inhibition at 10 µM [2, 4]: 100%; melting point: 224 to 226 °C
5-(5,5-Dimethyl-1,3-hexadienyl)-6-chloro-3-(2-(R)-pyrrolidinylmethoxy)pyridine Citric Acid Salt [Example 55] | 4.6 nM | – | EC50 ([2]; 86Rb+ efflux): > 10000 µM; IMR-32 maximal response [2, 5]: 24.5%
CN1CCC[C@H]1COc1cncc(-c2cccs2)c1 [Example 6, 5-(2-Thienyyl)-3-(1-methyl-2-(S)-pyrrolidinylmethoxy)pyridine Dihydrochloride] | 0.31 nM | 28% | –
CN1CCC[C@H]1COc1cncc(-c2ccc(F)c(Cl)c2)c1 [Example 42, 5-(3-Chloro-4-fluorolphenyl)-3-(1-methyl-2-(S)-pyrrolidinylmethoxy)pyridine Dihydrochloride] | 0.055 nM | 38% | –
CN1CCC[C@H]1COc1cncc(-c2ccc3ccccc3c2)c1 [Example 31, 5-(2-Naphthalenyl-3-(1-methyl-2-(S)-pyrrolidinylmethoxy)pyridine Dihydrochloride] | 0.33 nM | 37% | –
Cc1ccccc1-c1cncc(OC[C@@H]2CCCN2C)c1 [Example 45, 5-(2-Methylphenyl)-3-(1-methyl-2-(S)-pyrrolidinylmethoxy)pyridine Dihydrochloride] | 1.1 nM | 41% | inhibition at 10 µM [2, 4]: 100%
CN1CCC[C@H]1COc1cncc(-c2ccc(Cl)cc2Cl)c1.Cl.Cl [Example 39, 5-(2,4-Dichlorophenyl)-3-(1-methyl-2-(S)-pyrrolidinylmethoxy)pyridine Dihydrochloride] | 0.16 nM | 52% | melting point: 176 to 178 °C
Cl.Cl.Clc1ncc(OC[C@@H]2CCCN2)cc1-c1cccnc1 [Example 34, 5-(3-Pyridinyl)-6-chloro-3-(2-(S)-pyrrolidinylmethoxy)pyridine Dihydrochloride] | 0.021 nM | – | Emax ([2]; IMR-32, 86Rb+ efflux, percent relative to the response elicited by 100 μM (S)-nicotine, read-out: IMR-32 maximal response): 88%; melting point: 195 to 198 °C
CN1CCC[C@H]1COc1cncc(C(=O)N2CCCC2)c1 [Example 19, 5-(1-Pyrrolidinylcarbonyl)-3-(1)-methyl-2-(S)-pyrrolidinylmethoxy)pyridine Dihydrochloride] | 20 nM | 14% | –
CN1CCC[C@H]1COc1cncc(-c2cc3ccccc3n2C)c1.Cl [Example 36, 5-(1-Methyl-2-indolyl)-3-(1-methyl-2-(S)-pyrrolidinylmethoxy)pyridine Hydrochloride] | 0.32 nM | 28% | melting point: 195 to 197 °C
CN1CCC[C@H]1COc1cncc(CCc2ccccc2)c1 [Example 21, 5-(2-Phenylethyl)-3-(1-methyl-2-(S)-pyrrolidinylmethoxy)pyridine Dihydrochloride] | 0.22 nM | 22% | –
CC(=O)c1cncc(OC[C@@H]2CCCN2C)c1 [Example 10, 5-Acetyl-3-(1-methyl-2-(S)-pyrrolidinylmethoxy)pyridine Dihydrochloride] | 1.2 nM | 32% | –
CN1CCC[C@H]1COc1cncc(CCc2ccncc2)c1 [Example 29, 5-(2-(4-Pyridinnyl)ethyl)-3-(1-methyl-2-(S)-pyrrolidinnylmethoxy)pyridine Trihydrochloride] | 0.064 nM | 32% | –
CN1CCC[C@H]1COc1cncc(-c2cc(C(F)(F)F)cc(C(F)(F)F)c2)c1 [Example 37, 5-(3,5-bis(Trifluoromehyl)phenyl)-3-(1-methyl-2-(S)-pyrrolidinylmethoxy)pyridine Dihydrochloride] | 2.4 nM | 41% | –
CN1CCC[C@H]1COc1cncc(-c2cnc3ccccc3c2)c1 [Example 35, 5-(3-Ouinolinyl)-3-(1-methyl-2-(S)-pyrrolidinylmethoxy)pyridine Trihydrochloride] | 0.39 nM | 34% | –
CN1CCC[C@H]1COc1cncc(-c2ccc(C(F)(F)F)cc2)c1 [Example 46, 5-(4-(Trifluoromethyl)phenyl)-3-(1)-methyl-2-(S)-pyrrolidinylmethoxy)pyridine Dihydrochloride] | 0.15 nM | 37% | –
